Results as given in patent US20220242870A1, “HETEROCYCLE-FUSED PYRIMIDINE DERIVATIVE AND USE THEREOF” (VORONOI Inc., priority 2019, published 2022).

How the values were obtained:
[1] = tested on: MCF-7 cells; experiment: Breast cancer cell line proliferation inhibitory activity (CellTiter-Glo 2.0); type: cell-based; conditions: Homo sapiens, MCF7, 120 hours
Protocol: In order to evaluate the breast cancer cell line cell proliferation inhibitory activities of Examples according to the present invention, the following experiment was performed. Breast cancer cells of MCF-7 (Korean Cell Line Bank) were planted in a clear bottom white 96-well plate (Corning) so as to be 3×10^3/150 μl/well, and a culture solution comprising the compound continuously diluted in multiples of 3 at 12 concentrations (0.00001-2 mM) and a DMSO control group was added by 0.5 μl/well and treated so that the final concentration was 0.00005-10 μM, and then cultured in a 37° C. CO2 incubator for 120 hours. After 120 hours, the plate treated with the compound is taken out, and CellTiter-Glo® 2.0 Assay (Promega) solution is treated at 150 μl/well and then they mix well. They mix well at room temperature for 10 minutes or so, and the fluorescence is measured with a microplate reader. The data were expressed as a percentage in proportion to the vehicle standard treated cells, the GI50 (nM) values were calculated using GraphPad Prism 8.3.0 (GraphPad software Inc., San Diego), and the results were shown in Table 3 below.

[2] = target: T1, human GST-HPK1 (1-346) (Homo sapiens, UniProt Q92918); experiment: HPK1 enzyme inhibitory ability (ADP-Glo kinase assay); type: biochemical; conditions: human GST-HPK1 3 ng, ATP 3 uM, 25° C. 2 hours
T1 construct: purified human GST-HPK1 (1-346, Signalchem) enzyme; purchased Signalchem
T1 sequence (Q92918 1-346): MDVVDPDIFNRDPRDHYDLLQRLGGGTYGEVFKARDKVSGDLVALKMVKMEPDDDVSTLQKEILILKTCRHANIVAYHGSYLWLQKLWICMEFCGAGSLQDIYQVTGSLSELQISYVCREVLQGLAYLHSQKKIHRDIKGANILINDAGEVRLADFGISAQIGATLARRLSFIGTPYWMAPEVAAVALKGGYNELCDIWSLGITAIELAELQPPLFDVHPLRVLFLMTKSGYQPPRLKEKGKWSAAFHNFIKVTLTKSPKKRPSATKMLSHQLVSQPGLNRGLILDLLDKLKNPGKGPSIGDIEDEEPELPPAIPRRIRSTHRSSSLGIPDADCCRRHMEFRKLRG
Protocol: In order to evaluate the inhibitory activities of the example compounds according to the present invention on the HPK1 (hematopoietic progenitor kinase 1) enzyme, the following experiment was performed. The example compounds were reacted with the purified human GST-HPK1 (1-346, Signalchem) enzyme to evaluate the enzyme inhibitory ability by the following method. As the reaction buffer, a composition of 40 mM Tris-HCl pH 7.4, 20 mM MgCl2, 0.5 mg/mL BSA and 50 uM DTT was used, and reactions of all test matters were performed on the reaction buffer. Upon the test, the human GST-HPK1 (3 ng) enzyme, the purified ATP (3 uM) and a specific substrate solution were reacted at 25° C. for 2 hours, and then the enzyme activity was identified using an in vitro ADP-Glo™ kinase assay (promega). The enzyme activity reaction solution, the ADP-Glo reaction solution and the enzyme ability detection solution were reacted in a ratio of 2:2:1 to measure luminescence. The enzyme activity inhibition degree according to the treatment concentrations of the respective compounds was calculated based on the fluorescence of the enzyme activity of the solvent control group that was not treated with the compound, where the concentration of each compound that inhibited enzyme activity inhibition by 50% was determined as an IC50 (nM) value.

[3] = target: T2, human FLT3-ITD enzyme (Homo sapiens, UniProt P36888); experiment: FLT3 enzyme inhibitory ability (ADP-Glo kinase assay); type: biochemical; conditions: human FLT3-ITD enzyme 10 ng, ATP 10 μM, 25° C. 1 hour
T2 sequence (P36888 1-993): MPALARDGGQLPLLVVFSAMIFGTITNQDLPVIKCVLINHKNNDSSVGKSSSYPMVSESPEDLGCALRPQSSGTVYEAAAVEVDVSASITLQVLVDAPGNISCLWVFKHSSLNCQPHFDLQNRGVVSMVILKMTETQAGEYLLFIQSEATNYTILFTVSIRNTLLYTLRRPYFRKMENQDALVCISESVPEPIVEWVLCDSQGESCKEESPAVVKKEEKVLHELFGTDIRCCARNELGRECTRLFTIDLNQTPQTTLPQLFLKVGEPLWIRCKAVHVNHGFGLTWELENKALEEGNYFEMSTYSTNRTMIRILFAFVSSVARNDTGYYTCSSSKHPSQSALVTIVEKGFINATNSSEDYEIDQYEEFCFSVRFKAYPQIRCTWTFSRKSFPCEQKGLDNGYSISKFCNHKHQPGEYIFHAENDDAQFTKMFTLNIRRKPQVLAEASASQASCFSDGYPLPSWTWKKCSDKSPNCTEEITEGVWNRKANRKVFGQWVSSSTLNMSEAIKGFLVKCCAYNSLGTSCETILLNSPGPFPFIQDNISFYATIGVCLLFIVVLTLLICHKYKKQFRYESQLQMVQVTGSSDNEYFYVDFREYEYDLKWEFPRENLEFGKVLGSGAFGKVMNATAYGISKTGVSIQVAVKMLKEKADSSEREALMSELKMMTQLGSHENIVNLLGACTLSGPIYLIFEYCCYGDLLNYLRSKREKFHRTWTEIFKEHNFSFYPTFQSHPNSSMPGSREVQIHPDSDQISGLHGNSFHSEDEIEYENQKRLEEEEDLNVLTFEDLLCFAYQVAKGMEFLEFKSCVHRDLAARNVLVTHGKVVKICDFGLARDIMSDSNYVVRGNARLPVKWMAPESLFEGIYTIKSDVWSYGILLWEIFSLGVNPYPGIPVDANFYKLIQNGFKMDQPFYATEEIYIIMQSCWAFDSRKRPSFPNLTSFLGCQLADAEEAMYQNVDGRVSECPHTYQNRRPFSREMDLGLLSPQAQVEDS
Protocol: The inhibitory activities of the example compounds according to the present invention to the FLT3-ITD enzyme were evaluated. Specifically, the compound of the present invention was reacted with a purified human FLT3-ITD enzyme (Signalchem). A composition of 40 mM Tris-HCl pH 7.4, 20 mM MgCl2, 0.5 mg/mL BSA and 50 μM DTT was used as a reaction buffer, and reactions of all test matters were performed on the reaction buffer. Upon the test, human FLT3-ITD enzyme (10 ng), purified ATP (10 μM) and a specific substrate solution were reacted at 25° C. for 1 hour, and then the enzyme activity was identified using an in vitro ADP-Glo™ kinase assay (Promega). The enzyme activity reaction solution, the ADP-Glo reaction solution and the enzyme ability detection solution were reacted in a ratio of 2:2:1, and the activity inhibition degree of the enzyme was measured as luminescence. Using the solvent-treated group that was not treated with the compound as a control group, the enzyme activity inhibition degree according to the treatment concentration of each compound was calculated based on the enzyme activity fluorescence degree, and the concentration of each compound that inhibited 50%, IC50 (nM), was determined using Prism Software (version 5.01, GraphPad).

A GI50 [1] of over 500 nM, an IC50 [2] of over 500 nM and an IC50 [3] of over 500 nM were found for `OCCN1CC[C@@H](Oc2cc(Nc3nc(N4N=CCC4c4ccccc4)c4sccc4n3)cc(C3CC3)c2)C1` (stereo partly drawn) [Example 14, 2-((3R)-3-(3-cyclopropyl-5-((4-(5-phenyl-4,5-dihydro-1H-pyrazol-1-yl)thieno[3,2-d]pyrimidin-2-yl)amino)phenoxy)pyrrolidin-1-yl)ethan-1-ol] in this work.
A GI50 [1] of over 500 nM, an IC50 [2] of over 500 nM and an IC50 [3] of over 500 nM were found for `COc1cc(Nc2nc(N3N=CCC3c3ccccc3)c3sccc3n2)cc(C(=O)N2CCN(CCO)CC2)c1` (centres unmarked) [Example 15, (4-(2-hydroxyethyl)piperazin-1-yl)(3-methoxy-5-((4-(5-phenyl-4,5-dihydro-1H-pyrazol-1-yl)thieno[3,2-d]pyrimidin-2-yl)amino)phenyl)methanone] in this work.
A GI50 [1] of over 500 nM, an IC50 [2] of over 500 nM and an IC50 [3] of over 500 nM were found for `CN(C)[C@@H]1CCN(c2cccc(Nc3nc(N4N=CCC4c4ccccc4)c4sccc4n3)c2)C1` (stereo partly drawn) [Example 17, N-(3-((R)-3-(dimethylamino)pyrrolidin-1-yl)phenyl)-4-(5-phenyl-4,5-dihydro-1H-pyrazol-1-yl)thieno[3,2-d]pyrimidin-2-amine] in this work.
A GI50 [1] of over 500 nM, an IC50 [2] of over 500 nM and an IC50 [3] of over 500 nM were found for `CN(C)[C@H]1CCN(c2cccc(Nc3nc(N4N=CCC4c4ccccc4)c4sccc4n3)c2)C1` (stereo partly drawn) [Example 18, N-(3-((S)-3-(dimethylamino)pyrrolidin-1-yl)phenyl)-4-(5-phenyl-4,5-dihydro-1H-pyrazol-1-yl)thieno[3,2-d]pyrimidin-2-amine] in this work.
A GI50 [1] of over 500 nM, an IC50 [2] of over 500 nM and an IC50 [3] of over 500 nM were found for `COc1cc(Nc2nc(N3OCC[C@@H]3c3ccccc3)c3sccc3n2)ccc1N1CCC(N2CCN(C)CC2)CC1` [Example 58, (R)-N-(3-methoxy-4-(4-(4-methylpiperazin-1-yl)piperidin-1-yl)phenyl)-4-(3-phenylisoxazolidin-2-yl)thieno[3,2-d]pyrimidin-2-amine] in this work.
A GI50 [1] of over 500 nM, an IC50 [2] of over 500 nM and an IC50 [3] of over 500 nM were found for `CN1CCN(c2ccc(Nc3nc(N4OCC[C@@H]4c4ccccc4)c4sccc4n3)cc2)CC1` [Example 60, (R)-N-(4-(4-methylpiperazin-1-yl)phenyl)-4-(3-phenylisoxazolidin-2-yl)thieno[3,2-d]pyrimidin-2-amine] in this work.
A GI50 [1] of over 500 nM, an IC50 [2] of over 500 nM and an IC50 [3] of over 500 nM were found for `CN(C)[C@@H]1CCN(c2cccc(Nc3nc(N4OCC[C@H]4c4ccccc4)c4sccc4n3)c2)C1` [Example 61, N-(3-((R)-3-(dimethylamino)pyrrolidin-1-yl)phenyl)-4-((S)-3-phenylisoxazolidin-2-yl)thieno[3,2-d]pyrimidin-2-amine] in this work.
A GI50 [1] of over 500 nM, an IC50 [2] of over 500 nM and an IC50 [3] of over 500 nM were found for `CN(C)[C@H]1CCN(c2cccc(Nc3nc(N4OCC[C@H]4c4ccccc4)c4sccc4n3)c2)C1` [Example 62, N-(3-((S)-3-(dimethylamino)pyrrolidin-1-yl)phenyl)-4-((S)-3-phenylisoxazolidin-2-yl)thieno[3,2-d]pyrimidin-2-amine] in this work.
A GI50 [1] of over 500 nM, an IC50 [2] of over 500 nM and an IC50 [3] of over 500 nM were found for `CN(C)[C@@H]1CCN(c2cccc(Nc3nc(N4OCC[C@@H]4c4ccccc4)c4sccc4n3)c2)C1` [Example 63, N-(3-((R)-3-(dimethylamino)pyrrolidin-1-yl)phenyl)-4-((R)-3-phenylisoxazolidin-2-yl)thieno[3,2-d]pyrimidin-2-amine] in this work.
A GI50 [1] of over 500 nM, an IC50 [2] of over 500 nM and an IC50 [3] of over 500 nM were found for `CN(C)[C@H]1CCN(c2cccc(Nc3nc(N4OCC[C@@H]4c4ccccc4)c4sccc4n3)c2)C1` [Example 64, N-(3-((S)-3-(dimethylamino)pyrrolidin-1-yl)phenyl)-4-((R)-3-phenylisoxazolidin-2-yl)thieno[3,2-d]pyrimidin-2-amine] in this work.
A GI50 [1] of over 500 nM, an IC50 [2] of over 500 nM and an IC50 [3] of over 500 nM were found for `OCCN1CC[C@@H](Oc2cc(Nc3nc(N4OCC[C@H]4c4ccccc4)c4sccc4n3)cc(C3CC3)c2)C1` [Example 65, 2-((R)-3-(3-cyclopropyl-5-((4-((S)-3-phenylisoxazolidin-2-yl)thieno[3,2-d]pyrimidin-2-yl)amino)phenoxy)pyrrolidin-1-yl)ethan-1-ol] in this work.
An IC50 [2] of over 500 nM and an IC50 [3] of over 500 nM were found for `COc1cc(Nc2nc(N3OCC[C@H]3c3ccccc3)c3cc[nH]c3n2)cc(C(=O)N2CCN(CCO)CC2)c1` [Example 94, (S)-(4-(2-hydroxyethyl)piperazin-1-yl)(3-methoxy-5-((4-(3-phenylisoxazolidin-2-yl)-7H-pyrrolo[2,3-d]pyrimidin-2-yl)amino)phenyl)methanone] in this work.
An IC50 [2] of over 500 nM was found for `COc1ccc2c(c1Nc1nc(N3OCC[C@H]3c3ccccc3)c3cc[nH]c3n1)CCN(C)C2` [Example 114, (S)-6-methoxy-2-methyl-N-(4-(3-phenylisoxazolidin-2-yl)-7H-pyrrolo[2,3-d]pyrimidin-2-yl)-1,2,3,4-tetrahydroisoquinolin-5-amine] in this work.
An IC50 [2] of over 500 nM was found for `COc1cc2c(cc1Nc1nc(N3OCC[C@H]3c3ccccc3)c3c(C#N)c[nH]c3n1)CN(C1CC1)CC2` [Example 122, (S)-2-((2-cyclopropyl-6-methoxy-1,2,3,4-tetrahydroisoquinolin-7-yl)amino)-4-(3-phenylisoxazolidin-2-yl)-7H-pyrrolo[2,3-d]pyrimidine-5-carbonitrile] in this work.
An IC50 [2] of over 500 nM was found for `FC(F)(F)c1c[nH]c2nc(Nc3ccc4c(c3)CCNC4)nc(N3OCC[C@H]3c3ccccc3)c12` [Example 124, (S)-N-(4-(3-phenylisoxazolidin-2-yl)-5-(trifluoromethyl)-7H-pyrrolo[2,3-d]pyrimidin-2-yl)-1,2,3,4-tetrahydroisoquinolin-6-amine] in this work.
